Assay results: ChEMBL document CHEMBL2321750, “Structural permutation of potent cytotoxin, polytheonamide B: discovery of cytotoxic Peptide with altered activity” (ACS Med Chem Lett, 2013)

system: P388; experiment: Cytotoxicity against mouse P388 cells assessed as cell viability after 92 hrs by XTT assay; format: functional, cell-based; settings: P388, 92 h

Structure (SMILES)	IC50
CC[C@H](C)[C@H](NC(=O)[C@@H](CC(=O)NC)NC(=O)CNC(=O)[C@H](NC(=O)[C@@H](NC(=O)[C@@H](CC(=O)NC)NC(=O)[C@@H](NC(=O)[C@@H](CC(=O)NC)NC(=O)CNC(=O)CNC(=O)[C@H](C)NC(=O)[C@H](NC(=O)[C@H](CCC(=O)NC)NC(=O)[C@@H](CC(=O)NC)NC(=O)[C@@H](N)C(C)(C)C)C(C)(C)O)[C@@H](C)CC)C(C)(C)C)C(C)(C)O)C(=O)N[C@H](CC(=O)NC)C(=O)N[C@H](C(=O)N[C@H](CC(=O)NC)C(=O)N[C@@H](C)C(=O)N[C@H](CC(=O)NC)C(=O)N[C@H](C(=O)N[C@H](CO)C(=O)N[C@H](C(=O)N[C@H](CC(N)=O)C(=O)N[C@@H](Cc1cn(CCNS(=O)(=O)c2cccc3c(N(C)C)cccc23)nn1)C(=O)N[C@H](CC(N)=O)C(=O)N[C@@H](CCC(N)=O)C(=O)N[C@@H](C(=O)N[C@H](C(=O)O)[C@@H](C)O)[C@H](C)O)C(C)C)C(C)C)C(C)C	0.39 µM
CC[C@H](C)[C@H](NC(=O)[C@@H](CC(=O)NC)NC(=O)CNC(=O)[C@H](NC(=O)[C@@H](NC(=O)[C@@H](CC(=O)NC)NC(=O)[C@@H](NC(=O)[C@@H](CC(=O)NC)NC(=O)CNC(=O)CNC(=O)[C@H](C)NC(=O)[C@H](NC(=O)[C@H](CCC(=O)NC)NC(=O)[C@@H](CC(=O)NC)NC(=O)[C@@H](NC(=O)CNC(=O)[C@H](C)NC(=O)CNC(=O)[C@@H](NC(=O)[C@@H](CC(=O)NC)NC(=O)[C@H](C)N)C(C)(C)O)C(C)(C)C)C(C)(C)O)[C@@H](C)CC)C(C)(C)C)C(C)(C)O)C(=O)N[C@H](CC(=O)NC)C(=O)N[C@H](C(=O)N[C@H](CC(=O)NC)C(=O)N[C@@H](C)C(=O)N[C@H](CC(=O)NC)C(=O)N[C@H](C(=O)N[C@H](CO)C(=O)N[C@H](C(=O)N[C@H](CC(N)=O)C(=O)N[C@@H](Cc1cn(CCNS(=O)(=O)c2cccc3c(N(C)C)cccc23)nn1)C(=O)N[C@H](CC(N)=O)C(=O)N[C@@H](CCC(N)=O)C(=O)N[C@@H](C(=O)N[C@H](C(=O)O)[C@@H](C)O)[C@H](C)O)C(C)C)C(C)C)C(C)C	0.1 µM
CC[C@H](C)[C@H](NC(=O)[C@@H](CC(=O)NC)NC(=O)CNC(=O)[C@H](NC(=O)[C@@H](NC(=O)[C@@H](CC(=O)NC)NC(=O)[C@@H](NC(=O)[C@@H](CC(=O)NC)NC(=O)CNC(=O)CNC(=O)[C@H](C)NC(=O)[C@H](NC(=O)[C@H](CCC(=O)NC)NC(=O)[C@@H](CC(=O)NC)NC(=O)[C@@H](NC(=O)CNC(=O)[C@H](C)NC(=O)CNC(=O)[C@@H](NC(=O)[C@@H](CC(=O)NC)NC(=O)[C@H](C)NC(=O)[C@H](NC(=O)[C@H](C)NC(=O)CN)C(C)(C)C)C(C)(C)O)C(C)(C)C)C(C)(C)O)[C@@H](C)CC)C(C)(C)C)C(C)(C)O)C(=O)N[C@H](CC(=O)NC)C(=O)N[C@H](C(=O)N[C@H](CC(=O)NC)C(=O)N[C@@H](C)C(=O)N[C@H](CC(=O)NC)C(=O)N[C@H](C(=O)N[C@H](CO)C(=O)N[C@H](C(=O)N[C@H](CC(N)=O)C(=O)N[C@@H](Cc1cn(CCNS(=O)(=O)c2cccc3c(N(C)C)cccc23)nn1)C(=O)N[C@H](CC(N)=O)C(=O)N[C@@H](CCC(N)=O)C(=O)N[C@@H](C(=O)N[C@H](C(=O)O)[C@@H](C)O)[C@H](C)O)C(C)C)C(C)C)C(C)C	> 0.42 µM
CC[C@H](C)[C@H](NC(=O)[C@@H](CC(=O)NC)NC(=O)CNC(=O)[C@H](NC(=O)[C@@H](NC(=O)[C@@H](CC(=O)NC)NC(=O)[C@@H](NC(=O)[C@@H](CC(=O)NC)NC(=O)CNC(=O)CNC(=O)[C@H](C)NC(=O)[C@H](NC(=O)[C@H](CCC(=O)NC)NC(=O)[C@@H](CC(=O)NC)NC(=O)[C@@H](NC(=O)CNC(=O)[C@H](C)NC(=O)CNC(=O)[C@@H](NC(=O)[C@@H](CC(=O)NC)NC(=O)[C@H](C)NC(=O)[C@H](NC(=O)[C@H](C)NC(=O)CNC(=O)[C@H](C)N)C(C)(C)C)C(C)(C)O)C(C)(C)C)C(C)(C)O)[C@@H](C)CC)C(C)(C)C)C(C)(C)O)C(=O)N[C@H](CC(=O)NC)C(=O)N[C@H](C(=O)N[C@H](CC(=O)NC)C(=O)N[C@@H](C)C(=O)N[C@H](CC(=O)NC)C(=O)N[C@H](C(=O)N[C@H](CO)C(=O)N[C@H](C(=O)N[C@H](CC(N)=O)C(=O)N[C@@H](Cc1cn(CCNS(=O)(=O)c2cccc3c(N(C)C)cccc23)nn1)C(=O)N[C@H](CC(N)=O)C(=O)N[C@@H](CCC(N)=O)C(=O)N[C@@H](C(=O)N[C@H](C(=O)O)[C@@H](C)O)[C@H](C)O)C(C)C)C(C)C)C(C)C	> 0.42 µM
CC[C@H](C)[C@H](NC(=O)[C@@H](CC(=O)NC)NC(=O)CNC(=O)[C@H](NC(=O)[C@@H](NC(=O)[C@@H](CC(=O)NC)NC(=O)[C@@H](NC(=O)[C@@H](CC(=O)NC)NC(=O)CNC(=O)CNC(=O)[C@H](C)NC(=O)[C@H](NC(=O)[C@H](CCC(=O)NC)NC(=O)[C@@H](CC(=O)NC)NC(=O)[C@@H](NC(=O)CNC(=O)[C@H](C)NC(=O)CNC(=O)[C@@H](NC(=O)[C@H](N)CC(=O)NC)C(C)(C)O)C(C)(C)C)C(C)(C)O)[C@@H](C)CC)C(C)(C)C)C(C)(C)O)C(=O)N[C@H](CC(=O)NC)C(=O)N[C@H](C(=O)N[C@H](CC(=O)NC)C(=O)N[C@@H](C)C(=O)N[C@H](CC(=O)NC)C(=O)N[C@H](C(=O)N[C@H](CO)C(=O)N[C@H](C(=O)N[C@H](CC(N)=O)C(=O)N[C@@H](Cc1cn(CCNS(=O)(=O)c2cccc3c(N(C)C)cccc23)nn1)C(=O)N[C@H](CC(N)=O)C(=O)N[C@@H](CCC(N)=O)C(=O)N[C@@H](C(=O)N[C@H](C(=O)O)[C@@H](C)O)[C@H](C)O)C(C)C)C(C)C)C(C)C	> 0.42 µM
CC[C@H](C)[C@H](NC(=O)[C@@H](CC(=O)NC)NC(=O)CNC(=O)[C@H](NC(=O)[C@@H](NC(=O)[C@@H](CC(=O)NC)NC(=O)[C@@H](NC(=O)[C@@H](CC(=O)NC)NC(=O)CNC(=O)CNC(=O)[C@H](C)NC(=O)[C@H](NC(=O)[C@H](CCC(=O)NC)NC(=O)[C@@H](CC(=O)NC)NC(=O)[C@@H](NC(=O)CNC(=O)[C@H](C)NC(=O)CNC(=O)[C@@H](NC(=O)[C@@H](CC(=O)NC)NC(=O)[C@H](C)NC(=O)[C@H](N)C(C)(C)C)C(C)(C)O)C(C)(C)C)C(C)(C)O)[C@@H](C)CC)C(C)(C)C)C(C)(C)O)C(=O)N[C@H](CC(=O)NC)C(=O)N[C@H](C(=O)N[C@H](CC(=O)NC)C(=O)N[C@@H](C)C(=O)N[C@H](CC(=O)NC)C(=O)N[C@H](C(=O)N[C@H](CO)C(=O)N[C@H](C(=O)N[C@H](CC(N)=O)C(=O)N[C@@H](Cc1cn(CCNS(=O)(=O)c2cccc3c(N(C)C)cccc23)nn1)C(=O)N[C@H](CC(N)=O)C(=O)N[C@@H](CCC(N)=O)C(=O)N[C@@H](C(=O)N[C@H](C(=O)O)[C@@H](C)O)[C@H](C)O)C(C)C)C(C)C)C(C)C	0.081 µM
CC[C@H](C)[C@H](NC(=O)[C@@H](CC(=O)NC)NC(=O)CNC(=O)[C@H](NC(=O)[C@@H](NC(=O)[C@@H](CC(=O)NC)NC(=O)[C@@H](NC(=O)[C@@H](CC(=O)NC)NC(=O)CNC(=O)CNC(=O)[C@H](C)NC(=O)[C@H](NC(=O)[C@@H](N)CCC(=O)NC)C(C)(C)O)[C@@H](C)CC)C(C)(C)C)C(C)(C)O)C(=O)N[C@H](CC(=O)NC)C(=O)N[C@H](C(=O)N[C@H](CC(=O)NC)C(=O)N[C@@H](C)C(=O)N[C@H](CC(=O)NC)C(=O)N[C@H](C(=O)N[C@H](CO)C(=O)N[C@H](C(=O)N[C@H](CC(N)=O)C(=O)N[C@@H](Cc1cn(CCNS(=O)(=O)c2cccc3c(N(C)C)cccc23)nn1)C(=O)N[C@H](CC(N)=O)C(=O)N[C@@H](CCC(N)=O)C(=O)N[C@@H](C(=O)N[C@H](C(=O)O)[C@@H](C)O)[C@H](C)O)C(C)C)C(C)C)C(C)C	> 0.42 µM
CC[C@H](C)[C@H](NC(=O)[C@@H](CC(=O)NC)NC(=O)CNC(=O)[C@H](NC(=O)[C@@H](NC(=O)[C@@H](CC(=O)NC)NC(=O)[C@@H](NC(=O)[C@@H](CC(=O)NC)NC(=O)CNC(=O)CNC(=O)[C@H](C)NC(=O)[C@H](NC(=O)[C@H](CCC(=O)NC)NC(=O)[C@@H](CC(=O)NC)NC(=O)[C@@H](NC(=O)CNC(=O)[C@H](C)NC(=O)CNC(=O)[C@@H](N)C(C)(C)O)C(C)(C)C)C(C)(C)O)[C@@H](C)CC)C(C)(C)C)C(C)(C)O)C(=O)N[C@H](CC(=O)NC)C(=O)N[C@H](C(=O)N[C@H](CC(=O)NC)C(=O)N[C@@H](C)C(=O)N[C@H](CC(=O)NC)C(=O)N[C@H](C(=O)N[C@H](CO)C(=O)N[C@H](C(=O)N[C@H](CC(N)=O)C(=O)N[C@@H](Cc1cn(CCNS(=O)(=O)c2cccc3c(N(C)C)cccc23)nn1)C(=O)N[C@H](CC(N)=O)C(=O)N[C@@H](CCC(N)=O)C(=O)N[C@@H](C(=O)N[C@H](C(=O)O)[C@@H](C)O)[C@H](C)O)C(C)C)C(C)C)C(C)C	0.14 µM
CC[C@H](C)[C@H](NC(=O)[C@@H](CC(=O)NC)NC(=O)CNC(=O)[C@H](NC(=O)[C@@H](NC(=O)[C@@H](CC(=O)NC)NC(=O)[C@@H](NC(=O)[C@@H](CC(=O)NC)NC(=O)CNC(=O)CNC(=O)[C@H](C)NC(=O)[C@H](NC(=O)[C@H](CCC(=O)NC)NC(=O)[C@@H](CC(=O)NC)NC(=O)[C@@H](NC(=O)CN)C(C)(C)C)C(C)(C)O)[C@@H](C)CC)C(C)(C)C)C(C)(C)O)C(=O)N[C@H](CC(=O)NC)C(=O)N[C@H](C(=O)N[C@H](CC(=O)NC)C(=O)N[C@@H](C)C(=O)N[C@H](CC(=O)NC)C(=O)N[C@H](C(=O)N[C@H](CO)C(=O)N[C@H](C(=O)N[C@H](CC(N)=O)C(=O)N[C@@H](Cc1cn(CCNS(=O)(=O)c2cccc3c(N(C)C)cccc23)nn1)C(=O)N[C@H](CC(N)=O)C(=O)N[C@@H](CCC(N)=O)C(=O)N[C@@H](C(=O)N[C@H](C(=O)O)[C@@H](C)O)[C@H](C)O)C(C)C)C(C)C)C(C)C	> 0.41 µM
CC[C@H](C)[C@H](NC(=O)[C@@H](CC(=O)NC)NC(=O)CNC(=O)[C@H](NC(=O)[C@@H](NC(=O)[C@@H](CC(=O)NC)NC(=O)[C@@H](NC(=O)[C@@H](CC(=O)NC)NC(=O)CNC(=O)CNC(=O)[C@H](C)NC(=O)[C@H](NC(=O)[C@H](CCC(=O)NC)NC(=O)[C@H](N)CC(=O)NC)C(C)(C)O)[C@@H](C)CC)C(C)(C)C)C(C)(C)O)C(=O)N[C@H](CC(=O)NC)C(=O)N[C@H](C(=O)N[C@H](CC(=O)NC)C(=O)N[C@@H](C)C(=O)N[C@H](CC(=O)NC)C(=O)N[C@H](C(=O)N[C@H](CO)C(=O)N[C@H](C(=O)N[C@H](CC(N)=O)C(=O)N[C@@H](Cc1cn(CCNS(=O)(=O)c2cccc3c(N(C)C)cccc23)nn1)C(=O)N[C@H](CC(N)=O)C(=O)N[C@@H](CCC(N)=O)C(=O)N[C@@H](C(=O)N[C@H](C(=O)O)[C@@H](C)O)[C@H](C)O)C(C)C)C(C)C)C(C)C	> 0.25 µM
